These results are taken from PubChem BioAssay AID651630 (Sanford-Burnham Center for Chemical Genomics, 2012).

For one experiment, the system named is DAPI. Briefly: triacylglycerol accumulation inhibitor potency, dose response, cell-based, panel, Nile Red and DAPI fluorescence, H9c2 (AID 651630).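 Further: cells exposed to compound overnight before fixation and staining.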 The settings on record: H9c2 cells, DAPI nuclear fluorescence (cytotoxicity counter-readout), oleic acid.
A further experiment concerns TAG. Described as above. The settings on record: H9c2 cells, Nile Red TAG fluorescence, oleic acid.

What is called IC50 is the concentration at which inhibition is half-maximal.

SMILES strings stand for the structures. The source made the active and inactive calls.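 How the source made its calls: active means lipid-stain IC50 at or below a set limit, with nuclear-stain toxicity IC50 at least five times higher; inactive means the rest.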

On to `COc1cc(OC)nc(Nc2nc(C(N)Cc3ccc(Cl)cc3)cs2)n1` (stereo not drawn), for which the IC50 cytotoxicity (DAPI nuclear signal decrease) was > 25 µM (inactive) in the experiment on DAPI (mean of runs), > 25 µM in the experiment on DAPI (run 1) and > 25 µM in the experiment with DAPI (run 2). Moreover, the IC50 in the experiment with TAG (run 1) was > 25 µM; in the experiment with TAG (run 2), 23.4 µM.
Turning to `NC(Cc1ccc(C(F)(F)F)cc1)c1csc(Nc2nncc3ccccc23)n1` (stereo not drawn), the results for the IC50 cytotoxicity (DAPI nuclear signal decrease) with DAPI (mean of runs), in the experiment with DAPI (run 1) and in the experiment with DAPI (run 2) were 21.4 µM (inactive), 21.5 µM and 21.3 µM, respectively. Also, the IC50 with TAG (mean of runs) was > 25 µM (inactive); in the experiment on TAG (run 1), > 25 µM; in the experiment with TAG (run 2), > 25 µM.
For `O=C1NC(Cc2ccc(O)cc2)c2nc3ccc(Cl)cc3c(=O)n2-c2cc3ccccc3cc21` (stereo not drawn), the IC50 cytotoxicity (DAPI nuclear signal decrease) is > 25 µM (inactive) in the experiment with DAPI (mean of runs), > 25 µM with DAPI (run 1) and > 25 µM in the experiment on DAPI (run 2). Further, the values for the IC50 in the experiment with TAG (mean of runs), in the experiment on TAG (run 1) and in the experiment on TAG (run 2) were > 25 µM (inactive), > 25 µM and > 25 µM, respectively.
Take `CCN(C(=O)COC(=O)c1cc(-c2ccccc2)nc2c1c(C)nn2-c1ccc(C)cc1)C1CCS(=O)(=O)C1` (stereo not drawn): the IC50 cytotoxicity (DAPI nuclear signal decrease) is > 25 µM (inactive) in the experiment on DAPI (mean of runs), > 25 µM in the experiment on DAPI (run 1) and > 25 µM in the experiment on DAPI (run 2). In addition, the results for the IC50 in the experiment on TAG (mean of runs), in the experiment on TAG (run 1) and in the experiment with TAG (run 2) were > 25 µM (inactive), > 25 µM and > 25 µM, respectively.
Turning to `O=C(Nc1cccc(-c2csc(Nc3ccc(Cl)cc3)n2)c1)c1cccc(C(F)(F)F)c1`, the figures for the IC50 cytotoxicity (DAPI nuclear signal decrease) in the experiment on DAPI (mean of runs), with DAPI (run 1) and in the experiment on DAPI (run 2) were > 25 µM (inactive), > 25 µM and > 25 µM, respectively. For the same molecule, the IC50 in the experiment with TAG (mean of runs) was 15.2 µM (inactive); in the experiment with TAG (run 1), 13.6 µM; in the experiment on TAG (run 2), 16.7 µM.
Take `N=c1n(CCO)c2ccccc2n1CCOc1ccc(Cl)cc1Cl`: the results for the IC50 cytotoxicity (DAPI nuclear signal decrease) with DAPI (mean of runs), in the experiment with DAPI (run 1) and with DAPI (run 2) were 22.3 µM (inactive), 21.4 µM and 23.1 µM, respectively. The IC50 in the experiment on TAG (mean of runs) is > 25 µM (inactive); with TAG (run 1), > 25 µM; with TAG (run 2) it was > 25 µM.
For the molecule `COC(=O)c1ccc(/C=C/c2c(-c3ccsc3)oc3ccc(N4CCOCC4)cc23)cc1`, the IC50 cytotoxicity (DAPI nuclear signal decrease) in the experiment with DAPI (mean of runs) is > 25 µM (inactive); in the experiment on DAPI (run 1), > 25 µM; in the experiment on DAPI (run 2), > 25 µM. Further, the IC50 is 16.9 µM (inactive) with TAG (mean of runs), 25 µM in the experiment on TAG (run 1) and 8.72 µM in the experiment with TAG (run 2).
For `COCCN(Cc1ccccc1)C(=O)C1CCN(C(=O)Nc2ccccc2)CC1`, the IC50 cytotoxicity (DAPI nuclear signal decrease) is > 25 µM (inactive) with DAPI (mean of runs), > 25 µM in the experiment on DAPI (run 1) and > 25 µM in the experiment with DAPI (run 2). Besides, the results for the IC50 in the experiment on TAG (mean of runs), in the experiment with TAG (run 1) and with TAG (run 2) were > 25 µM (inactive), > 25 µM and > 25 µM, respectively.
Turning to `NC(=O)N/N=C/c1c(Sc2nnnn2-c2ccccc2)nc2ccccn2c1=O`, the IC50 cytotoxicity (DAPI nuclear signal decrease) in the experiment on DAPI (mean of runs) is 17.2 µM (inactive); with DAPI (run 1), 15.7 µM; with DAPI (run 2), 18.7 µM. The figures for the IC50 with TAG (mean of runs), with TAG (run 1) and with TAG (run 2) were 10.7 µM, 15.3 µM and 6.11 µM, respectively.
On to `O=C(Nc1ccccc1)c1ccc(NCC2CCCO2)c(S(=O)(=O)N2CCOCC2)c1` (stereo not drawn), for which the IC50 cytotoxicity (DAPI nuclear signal decrease) in the experiment on DAPI (mean of runs) was > 25 µM (inactive); in the experiment with DAPI (run 1), > 25 µM; in the experiment on DAPI (run 2) it was > 25 µM. Further, the IC50 is > 25 µM (inactive) in the experiment with TAG (mean of runs), > 25 µM in the experiment with TAG (run 1) and > 25 µM in the experiment on TAG (run 2).
As for `O=c1cc(-c2ccccc2)[nH]c2ccc(F)cc12`, the IC50 cytotoxicity (DAPI nuclear signal decrease) in the experiment with DAPI (mean of runs) was > 25 µM (inactive); with DAPI (run 1) it was > 25 µM; with DAPI (run 2) it was > 25 µM. Further, the figures for the IC50 with TAG (mean of runs), with TAG (run 1) and in the experiment on TAG (run 2) were > 25 µM (inactive), > 25 µM and > 25 µM, respectively.
Turning to `O=C(Nc1ccncc1)C1CCCN(S(=O)(=O)c2cccc3cccnc23)C1` (stereo not drawn), the IC50 cytotoxicity (DAPI nuclear signal decrease) in the experiment on DAPI (mean of runs) is > 25 µM (inactive); with DAPI (run 1) it was > 25 µM; with DAPI (run 2), > 25 µM. In addition, the values for the IC50 with TAG (mean of runs), in the experiment with TAG (run 1) and in the experiment with TAG (run 2) were > 25 µM (inactive), > 25 µM and > 25 µM, respectively.
Turning to `COc1ccc(S(=O)(=O)N(C)C[C@@H]2OCCCC[C@H](C)Oc3ccc(NC(=O)Nc4ccc(C(F)(F)F)cc4)cc3C(=O)N([C@H](C)CO)C[C@H]2C)cc1`, the values for the IC50 cytotoxicity (DAPI nuclear signal decrease) with DAPI (mean of runs), in the experiment on DAPI (run 1) and in the experiment with DAPI (run 2) were > 25 µM (inactive), > 25 µM and > 25 µM, respectively. Besides, the IC50 in the experiment on TAG (mean of runs) is > 25 µM (inactive); in the experiment on TAG (run 1) it was > 25 µM; with TAG (run 2) it was > 25 µM.
In the case of `CCN(CC)S(=O)(=O)c1ccc(N2CCOCC2)c(NC(=O)c2[nH]c(C)c(C(C)=O)c2C)c1`, the IC50 cytotoxicity (DAPI nuclear signal decrease) is > 25 µM (inactive) in the experiment on DAPI (mean of runs), > 25 µM with DAPI (run 1) and > 25 µM in the experiment on DAPI (run 2). The figures for the IC50 in the experiment with TAG (mean of runs), in the experiment on TAG (run 1) and with TAG (run 2) were 7 µM, 6.05 µM and 7.95 µM, respectively.
For `C[C@@H]1CN([C@@H](C)CO)C(=O)c2cccc(NC(=O)C3CCCCC3)c2O[C@@H]1CN(C)Cc1ccc(Cl)c(Cl)c1`, the IC50 cytotoxicity (DAPI nuclear signal decrease) in the experiment on DAPI (mean of runs) was > 25 µM (inactive); with DAPI (run 1), > 25 µM; with DAPI (run 2), > 25 µM. The IC50 in the experiment with TAG (mean of runs) is 11.5 µM; in the experiment on TAG (run 1) it was 9.78 µM; in the experiment on TAG (run 2), 13.3 µM.
Take `Cc1ccc(Oc2ccc(S(=O)(=O)N3CCOCC3)cc2C(N)=O)c(-n2nc3ccccc3n2)c1`: the IC50 cytotoxicity (DAPI nuclear signal decrease) with DAPI (mean of runs) is > 25 µM (inactive); with DAPI (run 1), > 25 µM; in the experiment on DAPI (run 2), > 25 µM. Besides, the values for the IC50 with TAG (mean of runs), in the experiment with TAG (run 1) and in the experiment on TAG (run 2) were > 25 µM (inactive), > 25 µM and > 25 µM, respectively.
On to `COc1ccc(OC)c(Nc2nc(-c3sc(NC(=O)CC(C)C)nc3C)cs2)c1`, for which the figures for the IC50 cytotoxicity (DAPI nuclear signal decrease) in the experiment with DAPI (mean of runs), in the experiment with DAPI (run 1) and in the experiment on DAPI (run 2) were > 25 µM (inactive), > 25 µM and > 25 µM, respectively. Also, the IC50 in the experiment with TAG (mean of runs) was 14.1 µM; in the experiment on TAG (run 1) it was 12.9 µM; in the experiment on TAG (run 2), 15.3 µM.
Turning to `COc1cc(C#Cc2c(-c3cncn3C)n(C)c3ccc(-c4ccc5cc[nH]c5c4)cc23)cc(OC)c1`, the results for the IC50 cytotoxicity (DAPI nuclear signal decrease) with DAPI (mean of runs), in the experiment with DAPI (run 1) and with DAPI (run 2) were > 25 µM (inactive), > 25 µM and > 25 µM, respectively. Moreover, the IC50 in the experiment with TAG (mean of runs) was 11.7 µM; with TAG (run 1) it was 12.1 µM; with TAG (run 2), 11.3 µM.
As to `C#CCN(C[C@H]1[C@H](OC(=O)NCCCCCC)[C@H](OC(=O)NCCCCCC)C[C@@H](C(=O)OC)[C@H]1C(=O)OC)S(=O)(=O)c1ccc(C)cc1`, the IC50 cytotoxicity (DAPI nuclear signal decrease) in the experiment with DAPI (run 1) and in the experiment on DAPI (run 2) was > 25 µM throughout. Besides, the IC50 was 4.91 µM with TAG (mean of runs), 4.31 µM with TAG (run 1) and 5.5 µM with TAG (run 2).
Take `Cc1cc(=O)oc2cc(NC(=O)c3cccc(Br)c3)ccc12`: the IC50 cytotoxicity (DAPI nuclear signal decrease) in the experiment with DAPI (mean of runs) was > 25 µM (inactive); in the experiment with DAPI (run 1) it was > 25 µM; in the experiment with DAPI (run 2) it was > 25 µM. The results for the IC50 in the experiment on TAG (mean of runs), in the experiment with TAG (run 1) and with TAG (run 2) were > 25 µM (inactive), > 25 µM and > 25 µM, respectively.
In the case of `CCCN(CCC)CCNC(=O)c1cc2c(=O)n(CC)c3ccccc3c2s1`, the IC50 cytotoxicity (DAPI nuclear signal decrease) with DAPI (mean of runs) was > 25 µM (inactive); with DAPI (run 1), > 25 µM; in the experiment on DAPI (run 2), > 25 µM. Besides, the values for the IC50 in the experiment with TAG (mean of runs), in the experiment on TAG (run 1) and in the experiment with TAG (run 2) were > 25 µM (inactive), > 25 µM and > 25 µM, respectively.
For the molecule `CCCC(=O)Nc1nc2ccc(NC(=O)c3ccccc3F)cc2s1`, the IC50 cytotoxicity (DAPI nuclear signal decrease) in the experiment with DAPI (mean of runs) was > 25 µM (inactive); with DAPI (run 1), > 25 µM; in the experiment on DAPI (run 2), > 25 µM. Further, the IC50 was 13 µM in the experiment on TAG (mean of runs), 12.4 µM in the experiment on TAG (run 1) and 13.6 µM with TAG (run 2).
As for `Cc1c(C(=O)OCC(C)C)[nH]c2c1C(=O)CC(c1cccs1)C2` (stereo not drawn), the IC50 cytotoxicity (DAPI nuclear signal decrease) in the experiment on DAPI (mean of runs) is > 25 µM (inactive); in the experiment with DAPI (run 1), > 25 µM; in the experiment with DAPI (run 2) it was > 25 µM. Besides, the IC50 in the experiment on TAG (mean of runs) was > 25 µM (inactive); in the experiment with TAG (run 1) it was > 25 µM; with TAG (run 2) it was > 25 µM.
On to `COc1ccccc1Nc1nnc(SCC(=O)Nc2nc(-c3ccc(F)cc3)cs2)s1`, for which the results for the IC50 cytotoxicity (DAPI nuclear signal decrease) in the experiment with DAPI (mean of runs), with DAPI (run 1) and in the experiment on DAPI (run 2) were > 25 µM (inactive), > 25 µM and > 25 µM, respectively. For the same molecule, the IC50 in the experiment on TAG (mean of runs) is > 25 µM (inactive); in the experiment with TAG (run 1), > 25 µM; with TAG (run 2) it was > 25 µM.
For the molecule `COC(=O)[C@]1(CC(C)C)N[C@H](c2ccc(-c3ccc(F)cc3)cc2)[C@@H]2C(=O)N(C)C(=O)[C@@H]21`, the IC50 cytotoxicity (DAPI nuclear signal decrease) in the experiment on DAPI (mean of runs) is > 25 µM (inactive); with DAPI (run 1), > 25 µM; with DAPI (run 2), > 25 µM. Also, the IC50 in the experiment on TAG (mean of runs) was 14.9 µM; in the experiment with TAG (run 1), 14.6 µM; in the experiment with TAG (run 2), 15.1 µM.
